Measurements taken from publication PMC9176816, “A rapid and sensitive assay for quantifying the activity of both aerobic and anaerobic ribonucleotide reductases acting upon any or all substrates” (PLoS ONE, 2022).
One block for each compound: values may come before it.

Experiments:
[1] = molecular target: T1, E. coli class Ia RNR (EcRNR; NrdA/NrdB) (Escherichia coli, UniProt P00452); experiment: LC-MS/MS of dCDP, dUDP, dADP, dGDP formation; type: biochemical; conditions: four substrates (CDP 70, UDP 50, GDP 200, ADP 110 μM), 3 mM ATP, 20 μM dATP, remaining activity, specificity effector, pH 7.6, 37 °C
T1 construct: both subunits N-terminally His-tagged (tags kept), codon-optimized pET30(a), E. coli T7 Express; NrdA 85774 Da, NrdB 44528 Da; alpha2 and beta2 dimers; with Ribonucleoside-diphosphate reductase 1 subunit beta
T1 sequence (P00452 1-761): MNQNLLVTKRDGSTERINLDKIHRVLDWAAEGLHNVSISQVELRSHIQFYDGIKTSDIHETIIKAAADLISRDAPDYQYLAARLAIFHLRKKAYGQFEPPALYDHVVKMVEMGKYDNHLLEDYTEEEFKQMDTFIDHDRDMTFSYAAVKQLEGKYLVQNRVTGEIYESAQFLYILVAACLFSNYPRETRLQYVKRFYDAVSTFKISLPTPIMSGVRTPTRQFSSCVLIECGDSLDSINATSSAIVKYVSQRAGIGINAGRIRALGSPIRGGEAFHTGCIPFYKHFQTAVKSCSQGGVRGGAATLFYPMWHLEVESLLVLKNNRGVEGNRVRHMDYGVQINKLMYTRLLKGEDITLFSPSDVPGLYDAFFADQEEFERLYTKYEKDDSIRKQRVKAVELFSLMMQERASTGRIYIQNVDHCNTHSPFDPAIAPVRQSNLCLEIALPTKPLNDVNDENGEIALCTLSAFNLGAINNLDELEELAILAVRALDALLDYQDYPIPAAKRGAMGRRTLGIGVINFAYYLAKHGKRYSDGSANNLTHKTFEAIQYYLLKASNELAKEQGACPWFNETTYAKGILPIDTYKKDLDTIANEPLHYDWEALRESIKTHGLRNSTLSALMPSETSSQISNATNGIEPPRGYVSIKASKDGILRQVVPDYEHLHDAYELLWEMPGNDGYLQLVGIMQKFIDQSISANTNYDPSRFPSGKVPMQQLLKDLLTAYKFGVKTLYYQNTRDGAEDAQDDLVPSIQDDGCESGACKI
T1 sequence (P69924 2-376 partner): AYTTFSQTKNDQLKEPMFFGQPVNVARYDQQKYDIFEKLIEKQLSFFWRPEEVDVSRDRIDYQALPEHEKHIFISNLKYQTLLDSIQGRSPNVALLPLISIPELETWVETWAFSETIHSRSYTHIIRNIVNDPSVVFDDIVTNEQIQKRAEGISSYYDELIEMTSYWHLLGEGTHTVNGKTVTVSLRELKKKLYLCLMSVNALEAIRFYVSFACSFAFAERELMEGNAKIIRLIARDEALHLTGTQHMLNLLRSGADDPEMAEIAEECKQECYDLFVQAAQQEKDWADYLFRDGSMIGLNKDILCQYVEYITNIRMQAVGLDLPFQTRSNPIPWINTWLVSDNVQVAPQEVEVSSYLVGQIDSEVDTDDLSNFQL

[2] = molecular target: T1, E. coli class Ia RNR (EcRNR; NrdA/NrdB); experiment: LC-MS/MS of dCDP formation; type: biochemical; conditions: relative to 3 mM ATP; 1 mM CDP, dATP printed as 0.175 μM and 175 μM, NrdA 0.1 μM, NrdB 0.5 μM, Trx/TrxR/NADPH, Mg, pH 7.6, 37 °C; allosteric inhibitor

- % of initial activity at 1 mM ([1]; 250 μM TTP present): 50%
Structure (SMILES): Nc1nc2c(ncn2[C@H]2C[C@H](O)[C@@H](COP(=O)(O)OP(=O)(O)OP(=O)(O)O)O2)c(=O)[nH]1 [dGTP]

- % of initial activity at 1 mM ([1]; 100 μM dGTP present): 27%
Structure (SMILES): Cc1cn([C@H]2C[C@H](O)[C@@H](COP(=O)(O)OP(=O)(O)OP(=O)(O)O)O2)c(=O)[nH]c1=O [TTP]

- % inactivation [2]: 99%
Structure (SMILES): Nc1ncnc2c1ncn2[C@H]1C[C@H](O)[C@@H](COP(=O)(O)OP(=O)(O)OP(=O)(O)O)O1 [dATP]
